Experimental data from patent US20060099712A1, “Correlation of anti-cancer activity of dyes with redox potentials” (Eastman Kodak Company, priority 2004, published 2006).

Tested on: CX-1 Human Colon Carcinoma
Assay: Clonogenic dye screening assay, CX-1 cells (IC50)
Format: cell-based
Details: for CX (IC50 in the CX-1 cell line): 3 hrs treatment, colonies after 7-10 days, unit from method b117-118; for CV/CX (selectivity, kill ratio): ratio of IC50 in normal CV-1 line to IC50 in carcinoma CX-1 line
How it was run: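 Cells seeded 16-30 h ahead (2000 CX-1 or 1000 CV-1 per well), exposed to serially diluted dyes for 3 h at 37 °C, rinsed three times, then grown into colonies. Eight-point curves spanned 0.32-0.0015 μg/mL (CX-1) and 3.2-0.025 μg/mL (CV-1). IC50 is the concentration killing 50% of cells.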

SMILES	CX (IC50 in the CX-1 cell line)	CV/CX (selectivity, kill ratio)
COc1cccc2c1CCC1=C2N(C)/C(=C/C=C/c2sc3c([n+]2C)-c2cccc(OC)c2CC3)S1 [drawing 43|M|4,5-H, 6-MeO|4,5-H, 6-MeO]	0.02 µg/mL	0.75
CN1C2=C(CCc3ccccc32)S/C1=C\C=C\c1sc2c([n+]1C)-c1ccccc1CC2 [drawing 43|M|4,5-H|4,5-H]	0.20 µg/mL	4.0
COc1cccc2c3c(ccc12)S/C(=C\C=C\c1sc2ccc4c(OC)cccc4c2[n+]1C)N3C [drawing 43|M|6-MeO|6-MeO]	0.08 µg/mL	10.0
COc1ccc2c3c(ccc2c1)S/C(=C\C=C\c1sc2ccc4cc(OC)ccc4c2[n+]1C)N3C [drawing 43|M|7-MeO|7-MeO]	0.09 µg/mL	35.5
COc1ccc2ccc3c(c2c1)N(C)/C(=C/C=C/c1sc2ccc4ccc(OC)cc4c2[n+]1C)S3 [drawing 43|M|8-MeO|8-MeO]	0.02 µg/mL	40.0
CN1/C(=C/C=C/c2sc3ccc4ccccc4c3[n+]2C)Sc2ccc3ccccc3c21 [drawing 43|M|H|H]	–	10.0
CC[n+]1c(/C=C/C=C2\Oc3cc([N+](=O)[O-])c(Cl)cc3N2C)sc2cc([N+](=O)[O-])ccc21 [drawing 44|E/M|6-N03|5-Cl, 6-N03]	–	10.0
CCN1/C(=C\C=C\c2sc3ccccc3[n+]2CC)Oc2ccc(Cl)cc21 [drawing 44|Et|H|5-Cl]	–	27.3
CCN1/C(=C/C=C/c2sc3cc(OC)c(OC)cc3[n+]2CC)Oc2ccccc21 [drawing 44|E|5,6-MeO|H]	–	12.5
CCN1/C(=C/C=C/c2sc3cc(C)c(C)cc3[n+]2CC)Oc2ccccc21 [drawing 44|E|5,6-Me|H]	–	>20.0
CCN1/C(=C/C=C/c2sc3cc(O)c(O)cc3[n+]2CC)Oc2ccccc21 [drawing 44|E|5,6-OH|H]	–	8.0
CCN1/C(=C/C=C/c2sc3ccc(C#N)cc3[n+]2CC)Oc2ccccc21 [drawing 44|E|5-CN|H]	–	>13.3
CCN1/C(=C/C=C/c2sc3ccccc3[n+]2CC)Oc2cccc(O)c21 [drawing 44|E|H|4-OH]	–	0.43
CCN1/C(=C/C=C/c2sc3ccccc3[n+]2CC)Oc2cc(C)c(C)cc21 [drawing 44|E|H|5,6-Me]	–	>20.0
CCN1/C(=C/C=C/c2sc3ccccc3[n+]2CC)Oc2cc(C)c(Cl)cc21 [drawing 44|E|H|5-Cl, 6-Me]	–	11.4
CCN1/C(=C/C=C/c2sc3ccccc3[n+]2CC)Oc2ccc(C)cc21 [drawing 44|E|H|5-Me]	–	4.0
CCN1/C(=C/C=C/c2sc3ccccc3[n+]2CC)Oc2ccc(NS(=O)(=O)c3ccccc3)cc21 [drawing 44|E|H|5-NHSO2Ph]	–	16.7
CCN1/C(=C/C=C/c2oc3cc4c(cc3[n+]2CC)OCO4)Oc2cc3c(cc21)OCO3 [drawing 45|5,6-OCO—|5,6-OCO—]	0.08 µg/mL	5.0
CCN1/C(=C/C=C/c2oc3c(Cl)c(C)c(Cl)cc3[n+]2CC)Oc2c1cc(Cl)c(Cl)c2C [drawing 45|5,7-Cl, 6-Me|5,6-Cl, 7-Me]	–	>10.0
CCN1/C(=C\C=C\c2oc3ccc(C(F)(F)F)cc3[n+]2CC)Oc2ccc(C(F)(F)F)cc21 [drawing 45|5-CF3|5-CF3]	>.32 µg/mL	10.0
CCOC(=O)c1ccc2c(c1)N(CC)/C(=C/C=C/c1oc3ccc(C(=O)OCC)cc3[n+]1CC)O2 [drawing 45|5-CO2Et|5-CO2Et]	>.32 µg/mL	10.0
CCN1C(=CC=Cc2oc3cc(C)c(Cl)cc3[n+]2CC)Oc2cc(C)c(Cl)cc21 [drawing 45|5-Cl, 6-Me|5-Cl, 6-Me]	0.16 µg/mL	12.5
